From patent EP0076669A1, “Novel 3-phenyl-1-indanamines, pharmaceutical compositions and methods of preparation” (KEFALAS A/S, priority 1981, dated 1983)
Counter-ions that a name gives are not always drawn.

Columns and labels:
potentiation of 5-HTP = experiment: 5-HTP potentiation (5-HTP syndrome); format: in vivo; settings: Mus musculus, ip, 0.5 h; i.p., mice; 5-HTP 100 mg/kg i.v. 30 min after test substance; read-out: 5-HTP potentation,ED50
Procedure: The test substance is given i.p. or p.o. in the doses 10, 10, 2.5, 0.63 and 0 mg/kg. Three mice are used for each dose level. One of the groups on the highest dose is used as control of the compounds own effect. […] Thirty minutes after administration of test substance, 5-HTP, 100 mg/kg i.v. is given (injection time 5-10 sec.). After this 5-HTP dose the animals remain unaffected. If the animals have been pretreated with a substance, which inhibits the re-uptake of 5-HT, a 5-HTP syndrome will occur. This is characterized by the following symptoms: 1) excitation, 2) tremor, and 3) abduction of the hind limbs.
After the administration of 5-HTP the animals are observed for 15 minutes and each animal is given one point for each symptom present. Thus, the maximal score for a group consisting of 3 mice is 9.
The results are stated as fractions: 0/9, 1/9, 2/9 ..... 8/9, 9/9, where 0, 1, 2 ..... 8, 9 are the number of points per group after the dose in question.

[1] = test system: tetrabenazine induced ptosis; experiment: Tetrabenazine ptosis antagonism; format: in vivo; settings: Mus musculus, ip, 0.5 h; i.p., mice; tetrabenazine 40 mg/kg i.p. 30 min after test substance
Procedure: For insoluble substances the doses 0, 1/8, 1/32 and 1/128 of "i.^p. LD50" are used. 3 mice are used for each dose level. Thirty minutes after administration of test substance, tetrabenazine, 40 mg/kg, is injected i.p. Ptosis is evaluated 30 minutes after administration of tetrabenazine, the following rating scale being used: 0 = normal eyes, 1=1/4 closed eyes, 2 = 1/2 closed eyes, 3 = 3/4 closed eyes and 4 = completely closed eyes. Ptosis is evaluated 30 seconds after tilting the cage 3 times. The tilting is carried out in such a way that the animals slide along the floor of the cage.
The results are recorded as % inhibition of ptotic score calculated on the basis of the score of the control group. If ptotic score for the control group is < 10 the test is rejected and another is performed. The registration can also be done as an on line procedure.

| SMILES | ED50 (potentiation of 5-HTP) | ED50 [1] |
| --- | --- | --- |
| CN(C)[C@@H]1C[C@H](c2cccc(Cl)c2)c2ccccc21 (relative stereo) [Lu 19-116-c] | 78 µmol/kg | 85 µmol/kg |
| Clc1ccc([C@@H]2C[C@@H](NCCc3ccccc3)c3ccccc32)cc1Cl (relative stereo) [Lu 19-078-c] | 142 µmol/kg | 33 µmol/kg |
| CN[C@@H]1C[C@H](c2ccc(Cl)c(Cl)c2)c2ccc(F)cc21 (relative stereo) [Lu 19-137-c] | 34 µmol/kg | 15 µmol/kg |
| CN(C)[C@@H]1C[C@@H](c2ccc(Br)cc2)c2ccccc21 (relative stereo) [Lu 19-056] | 8 µmol/kg | 10 µmol/kg |
| CN(C)[C@@H]1C[C@@H](c2ccc(Cl)cc2Cl)c2ccccc21 (relative stereo) [Lu 18-136-c] | 19 µmol/kg | 23 µmol/kg |
| CNC1CC(c2ccc(F)cc2)c2ccc(F)cc21 (stereo not shown) [Lu 13-164-o] | 57 µmol/kg | 22 µmol/kg |
| CNC1CC(c2ccc(F)c(Cl)c2)c2ccccc21 (stereo not shown) [Lu 19-086-c] | 30 µmol/kg | 32 µmol/kg |
| CN(C)CCCC1(c2ccc(F)cc2)OCc2cc(C#N)ccc21 (stereo not shown) [Citalo-pram, reference compound] | 3.3 µmol/kg | 20 µmol/kg |
| CN(C)[C@@H]1C[C@@H](c2ccc(Cl)c(Cl)c2)c2ccccc21 (relative stereo) [Lu 18-118] | 5 µmol/kg | 83 µmol/kg |
| CN[C@@H]1C[C@H](c2cccc(Cl)c2)c2ccccc21 (relative stereo) [Lu 19-110-c] | 124 µmol/kg | 142 µmol/kg |
| CN(C)[C@@H]1C[C@H](c2ccc(Cl)cc2)c2ccccc21 (relative stereo) [Lu 19-124] | 109 µmol/kg | 43 µmol/kg |
| COc1ccc2c(c1)C(N(C)C)CC2c1ccc(Cl)c(Cl)c1 (stereo not shown) [Lu 20-050] | 26 µmol/kg | 119 µmol/kg |
| CNC1CC(c2ccc(F)cc2)c2ccc(C)cc21 (stereo not shown) [Lu 19-091-c] | 55 µmol/kg | > 137 µmol/kg |
| CN(C)[C@@H]1C[C@@H](c2ccc(F)c(Cl)c2)c2ccccc21 (relative stereo) [Lu 19-100-c, trans N,N-dimethyl-3-(3-chloro-4-fluorophenyi)-1-indanamine] | 37 µmol/kg | 4 µmol/kg |
| CN(C)C1CC(O)(c2ccc(F)c(Cl)c2)c2ccccc21 (stereo not shown) [Lu 19-114, N,N-dimethyl-3-(3-chloro-4-fluorophenyl)-3-hydroxy-1-indanamine] | 26 µmol/kg | 14 µmol/kg |
| CN[C@@H]1C[C@H](c2ccc(Cl)c(Cl)c2)c2ccc(OC)cc21 (relative stereo) [Lu 20-016-o] | 3 µmol/kg | 14 µmol/kg |
| CN[C@@H]1C[C@@H](c2ccc(F)c(Cl)c2)c2ccccc21 (relative stereo) [Lu 19-085-c, trans-N-methyl-3-(3'-chloro-4'-fluorophenyl)-I-indanamine hydrochloride] | 47 µmol/kg | 51 µmol/kg |
| Clc1ccc([C@@H]2C[C@@H](NCc3ccccc3)c3ccccc32)cc1Cl (relative stereo) [Lu 19-071-c] | > 25 µmol/kg | > 25 µmol/kg |
| CN(C)[C@@H]1C[C@H](c2ccc(Br)cc2)c2ccccc21 (relative stereo) [Lu 19-057] | 12 µmol/kg | 3.9 µmol/kg |
| CN(C)[C@@H]1C[C@@H](c2ccc(F)cc2)c2ccccc21 (relative stereo) [Lu 19-007-c] | 45 µmol/kg | 7.8 µmol/kg |
| CN[C@@H]1C[C@@H](c2ccc(F)cc2)c2ccccc21 (relative stereo) [Lu 19-109-c] | > 36 µmol/kg | 6.3 µmol/kg |
| CCN(C)[C@@H]1C[C@@H](c2ccc(F)c(Cl)c2)c2ccccc21 (relative stereo) [Lu 19-105-o, trans N-ethyl-N-methyl-N-3-(3'-chloro-4'-fluorophenyl)-indanamine] | 95 µmol/kg | 12 µmol/kg |

| SMILES | ED50 (potentiation of 5-HTP) | ED50 [1] |
| --- | --- | --- |
| CN[C@@H]1C[C@H](c2ccc(F)cc2)c2ccccc21 (relative stereo) [Lu 19-108-c, cis N-methyl-3-(4'-fluorophenyl)-1-indanamine, hydrochloride] | 72 µmol/kg | 79 µmol/kg |
| CN(C)[C@@H]1C[C@@H](c2ccc(C#N)cc2)c2ccc(F)cc21 (relative stereo) [Lu 19-070-c] | 25 µmol/kg | 45 µmol/kg |
| CN[C@@H]1C[C@H](c2ccccc2)c2ccccc21 (relative stereo) [Lu 19-094] | 211 µmol/kg | > 154 µmol/kg |
| CN[C@@H]1C[C@@H](c2ccc(Cl)cc2Cl)c2ccccc21 (relative stereo) [Lu 19-099-c] | 67 µmol/kg | 19 µmol/kg |
| CN[C@@H]1C[C@H](c2ccc(Cl)cc2)c2ccccc21 (relative stereo) [Lu 19-120-c] | 23 µmol/kg | > 34 µmol/kg |
| Clc1ccc(C2CC(NCCc3ccccc3)c3ccccc32)cc1Cl (stereo not shown) [Lu 19-079-o] | > 85 µmol/kg | > 85 µmol/kg |
| CN[C@@H]1C[C@H](c2ccc(F)c(F)c2)c2ccccc21 (relative stereo) [Lu 19-104-c, cis-N-methyl-3-(3,4-difluorophenyl)-1-indanamine] | 63 µmol/kg | 23 µmol/kg |
| CN[C@@H]1C[C@@H](c2ccc(Cl)cc2)c2ccccc21 (relative stereo) [Lu 19-119] | 34 µmol/kg | > 155 µmol/kg |
| CCCN(CCC)[C@@H]1C[C@@H](c2ccc(Cl)c(Cl)c2)c2ccccc21 (relative stereo) [Lu 19-042-c] | > 100 µmol/kg | > 25 µmol/kg |
| CN(C)[C@@H]1C[C@@H](c2ccc(Cl)c(Cl)c2)c2ccc(F)cc21 (relative stereo) [Lu 19-143-c] | 14 µmol/kg | > 111 µmol/kg |
| CN[C@@H]1C[C@@H](c2ccc(Br)cc2)c2ccccc21 (relative stereo) [Lu 19-102-c] | 8.8 µmol/kg | 4 µmol/kg |
| CN(C)C1CC(c2ccc(F)c(F)c2)c2ccccc21 (stereo not shown) [Lu 19-096-c] | 42 µmol/kg | 13 µmol/kg |
| CN(C)[C@@H]1C[C@H](c2ccc(Cl)c(Cl)c2)c2ccc(F)cc21 (relative stereo) [Lu 19-144-c] | 29 µmol/kg | > 111 µmol/kg |
| CN1Cc2c(N)cccc2C(c2ccccc2)C1 (stereo not shown) [Nomi-phensine, nomiphensine, reference compound] | > 56 µmol/kg | 4.3 µmol/kg |
| OCCNC1CC(c2ccc(Cl)c(Cl)c2)c2ccccc21 (stereo not shown) [Lu 19-073-c] | > 111 µmol/kg | > 111 µmol/kg |
| CCCN(CCC)[C@@H]1C[C@H](c2ccc(Cl)c(Cl)c2)c2ccccc21 (relative stereo) [Lu 19-043-c] | > 100 µmol/kg | > 100 µmol/kg |
| CN[C@@H]1C[C@@H](c2cccc(Cl)c2)c2ccccc21 (relative stereo) [Lu 19-111-c] | 92 µmol/kg | 45 µmol/kg |
| CN(C)[C@@H]1C[C@@H](c2ccccc2)c2ccccc21 (relative stereo) [Lu 19-026-c, reference compound] | > 35 µmol/kg | 17 µmol/kg |
| OCCN[C@@H]1C[C@@H](c2ccc(Cl)c(Cl)c2)c2ccccc21 (relative stereo) [Lu 19-074-c] | 270 µmol/kg | 75 µmol/kg |
| Clc1ccc([C@@H]2C[C@@H](NCC=Cc3ccccc3)c3ccccc32)cc1Cl (relative stereo) [Lu 19-083-o] | > 83 µmol/kg | > 83 µmol/kg |
| CN[C@@H]1C[C@H](c2ccc(Br)cc2)c2ccccc21 (relative stereo) [Lu 19-103-c] | 6.6 µmol/kg | 29 µmol/kg |
| Clc1ccc(C2CC(NCc3ccccc3)c3ccccc32)cc1Cl (stereo not shown) [Lu 19-072-c] | > 99 µmol/kg | > 99 µmol/kg |
